Where a name gives a salt, the structure may show the parent alone.
Q: Which melting point does the source give for `CCOCc1nc2c(N)nc3cc(-c4cccnc4)ccc3c2n1CCCCNC(=O)c1ccc(C(OCCN(C)C)c2ccccc2)cc1` (stereo not shown) [Example 494, N-[4-(4-Amino-2-ethoxymethyl-7-(pyridin-3-yl)imidazo[4,5-c]quinolin-1-yl)butyl]-4-[(2-dimethylaminoethoxy)phenylmethyl]benzamide] here?
A: 157 to 161 °C

Q: Which melting point does the source give for `CCOCc1nc2c(N)nc3cc(-c4cccnc4)ccc3c2n1CC1CCCCN1S(C)(=O)=O` (stereo not shown) [Example 492, 2-Ethoxymethyl-1-{[1-(methanesulfonyl)piperidin-2-yl]methyl}-7-(pyridin-3-yl)-1H-imidazo[4,5-c]quinolin-4-amine] here?
A: 152 to 154 °C

Q: Which melting point does the source give for `COCc1nc2c(N)nc3cc(-c4cncc(CO)c4)ccc3c2n1CC(C)(C)O` (hydrate or solvate) [Example 402, 1-[4-Amino-7-(5-hydroxymethylpyridin-3-yl)-2-methoxymethyl-1H-imidazo[4,5-c]quinolin-1-yl]-2-methylpropan-2-ol] here?
A: 224 to 225 °C

Q: Which melting point does the source give for `CCOCc1nc2c(N)nc3cc(-c4ccccc4)ccc3c2n1CC1COC(C)(C)O1` (stereo not shown) [Example 161, 1-[(2,2-Dimethyl-1,3-dioxolan-4-yl)methyl]-2-ethoxymethyl-7-phenyl-1H-imidazo[4,5-c]quinolin-4-amine] here?
A: 168 to 170 °C

Q: With `COCCc1nc2c(N)nc3cc(-c4ccccc4)ccc3c2n1CCCCNS(C)(=O)=O` [Example 199, N-{4-[4-Amino-2-(2-methoxyethyl)-7-phenyl-1H-imidazo[4,5-c]quinolin-1-yl]butyl}methanesulfonamide] as the molecule, how does the melting point read?
A: 201 to 202 °C

Q: Which melting point does the source give for `COCCc1nc2c(N)nc3cc(-c4cccnc4)ccc3c2n1CC(C)C` [Example 145, 2-(2-Methoxyethyl)-1-(2-methylpropyl)-7-(pyridin-3-yl)-1H-imidazo[4,5-c]quinolin-4-amine] here?
A: 207 to 208 °C

Q: For `CCCc1nc2c(N)nc3cc(Cc4ccccc4)ccc3c2n1CC(C)(C)O` (hydrate or solvate) [Example 432, 1-(4-Amino-7-benzyl-2-propyl-1H-imidazo[4,5-c]quinolin-1-yl)-2-methylpropan-2-ol], which melting point is on record?
A: 130 to 131 °C

Q: With `CC(C)(O)Cn1cnc2c(N)nc3ccc(Cc4ccccc4)cc3c21` [Example 434, 1-(4-Amino-8-benzyl-1H-imidazo[4,5-c]quinolin-1-yl)-2-methylpropan-2-ol] as the molecule, how does the melting point read?
A: 256 to 257 °C

Q: Which melting point does the source give for `CCOCc1nc2c(N)nc3cc(-c4ccc(S(=O)(=O)CC)cc4)ccc3c2n1CCCOC` [Example 172, 7-[(4-Ethanesulfonyl)phenyl]-2-ethoxymethyl-1-(3-methoxypropyl)-1H-imidazo[4,5-c]quinolin-4-amine] here?
A: 156 to 158 °C

Q: For `CCOCc1nc2c(N)nc3cc(-c4ccccc4)ccc3c2n1CCOc1ccccc1` [Example 197, 2-Ethoxymethyl-1-(2-phenoxyethyl)-7-phenyl-1H-imidazo[4,5-c]quinolin-4-amine], which melting point is on record?
A: 159 to 160 °C

Q: For `CCCC(=O)NCCCCn1c(CCC)nc2c(N)nc3cc(-c4cccnc4)ccc3c21` (hydrate or solvate) [Example 380, N-{4-[4-Amino-2-propyl-7-(pyridin-3-yl)-1H-imidazo[4,5-c]quinolin-1-yl]butyl}butyramide], which melting point is on record?
A: 144 to 146 °C

Q: With `CC(C)Cn1cnc2c(N)nc3ccc(CCc4ccccc4)cc3c21` [Example 123, 1-(2-Methylpropyl)-8-phenethyl-1H-imidazo[4,5-c]quinolin-4-amine] as the molecule, how does the melting point read?
A: 175 to 178 °C

Q: Which melting point does the source give for `CCOCc1nc2c(N)nc3cc(-c4ccncc4)ccc3c2n1CCCCN1CCCS1(=O)=O` [Example 154, 1-[4-(1,1-Dioxidoisothiazolidin-2-yl)-butyl]-2-ethoxymethyl-7-(pyridin-4-yl)-1H-imidazo[4,5-c]quinolin-4-amine] here?
A: 186 to 187.5 °C

Q: Which melting point does the source give for `COc1ccc(-c2ccc3nc(N)c4ncn(CC(C)C)c4c3c2)c(OC)c1` [Example 13, 8-(2,4-Dimethoxyphenyl)-1-isobutyl-1H-imidazo[4,5-c]quinolin-4-amine] here?
A: 223 to 227 °C

Q: Which melting point does the source give for `COCc1nc2c(N)nc3cc(-c4ccc(OC)nc4)ccc3c2n1CC(C)(C)O` [Example 398, 1-[4-Amino-2-methoxymethyl-7-(6-methoxypyridin-3-yl)-1H-imidazo[4,5-c]quinolin-1-yl]-2-methylpropan-2-ol] here?
A: 190 to 190.5 °C

Q: For `CCOCc1nc2c(N)nc3cc(-c4cccnc4)ccc3c2n1CCCCS(=O)(=O)NC` [Example 369, Methyl 4-[4-amino-2-ethoxymethyl-7-(pyridin-3-yl)-1H-imidazo[4,5-c]quinolin-1-yl]butane-1-sulfonamide], which melting point is on record?
A: 216 to 218 °C

Q: For `CCOCc1nc2c(N)nc3cc(-c4cccc(C(=O)N5CCCC5)c4)ccc3c2n1CCCOC` (as salt: HCl) [Example 175, {3-[4-Amino-2-ethoxymethyl-1-(3-methoxypropyl)-1H-imidazo[4,5-c]quinolin-7-yl]phenyl}pyrrolidin-1-ylmethanone], which melting point is on record?
A: 145 to 146 °C

Q: For `CCCOc1ccc(-c2cccc3nc(N)c4ncn(CC(C)C)c4c23)cc1` [Example 483, 1-(2-Methylpropyl)-9-(4-propoxyphenyl)-1H-imidazo[4,5-c]quinolin-4-amine], which melting point is on record?
A: 181 to 182 °C

Q: Which melting point does the source give for `CCCCc1nc2c(N)nc3cc(-c4ccccc4)ccc3c2n1CC(C)C` [Example 2, 2-Butyl-1-isobutyl-7-phenyl-1H-imidazo[4,5-c]quinolin-4-amine] here?
A: > 250 °C

Q: Which melting point does the source give for `CCOCc1nc2c(N)nc3cc(-c4cccnc4)ccc3c2n1CCN1CCNCC1` [Example 414, 2-Ethoxymethyl-1-(2-piperazin-1-ylethyl)-7-(pyridin-3-yl)-1H-imidazo[4,5-c]quinolin-4-amine] here?
A: 208 to 211 °C

Q: With `CC(C)Cn1cnc2c(N)nc3ccc(CCc4ccncc4)cc3c21` [Example 425, 1-(2-Methylpropyl)-8-(2-pyridin-4-ylethyl)-1H-imidazo[4,5-c]quinolin-4-amine] as the molecule, how does the melting point read?
A: 221 to 224 °C

Q: For `CCOCc1nc2c(N)nc3cc(-c4ccc(C#N)cc4)ccc3c2n1CC(C)C` [Example 110, 4-(4-Amino-2-ethoxymethyl-1-(2-methylpropyl)-1H-imidazo[4,5-c]quinolin-7-yl)benzonitrile], which melting point is on record?
A: 211 to 212 °C

Q: For `CCCOc1cccc(-c2ccc3c(c2)nc(N)c2nc(COCC)n(CC(C)C)c23)c1` [Example 106, 2-Ethoxymethyl-1-(2-methylpropyl)-7-(3-propoxyphenyl)-1H-imidazo[4,5-c]quinolin-4-amine], which melting point is on record?
A: 140 to 141 °C

Q: With `COCc1nc2c(N)nc3cc(-c4cnccc4OC)ccc3c2n1CC(C)(C)O` [Example 399, 1-[4-Amino-2-methoxymethyl-7-(4-methoxypyridin-3-yl)-1H-imidazo[4,5-c]quinolin-1-yl]-2-methylpropan-2-ol] as the molecule, how does the melting point read?
A: 220.5 to 222 °C

Q: For `CCCCn1c(COCC)nc2c(N)nc3ccc(-c4ccccc4)cc3c21` [Example 18, 1-Butyl-2-ethoxymethyl-8-phenyl-1H-imidazo[4,5-c]quinolin-4-amine], which melting point is on record?
A: 186 to 187 °C

Q: With `CCCc1nc2c(N)nc3cc(/C=C/c4ccccc4OC)ccc3c2n1CC(C)C` [Example 445, (E)-7-[2-(2-Methoxyphenyl)vinyl]-1-(2-methylpropyl)-2-propyl-1H-imidazo[4,5-c]quinolin-4-amine] as the molecule, how does the melting point read?
A: 214 to 216 °C

Q: With `CCOCc1nc2c(N)nc3cc(-c4cccnc4)ccc3c2n1CC1CCOCC1` (hydrate or solvate) [Example 479, 2-Ethoxymethyl-7-(pyridin-3-yl)-1-(tetrahydropyran-4-ylmethyl)-1H-imidazo[4,5-c]quinolin-4-amine] as the molecule, how does the melting point read?
A: 116 to 121 °C

Q: For `CCCCc1nc2c(N)nc3cc(/C=C/c4ccccc4)ccc3c2n1CC(C)C` [Example 7, 2-Butyl-1-isobutyl-7-[(E)-2-phenylethenyl]-1H-imidazo[4,5-c]quinolin-4-amine], which melting point is on record?
A: 215 to 216 °C

Q: Which melting point does the source give for `CCc1nc2c(N)nc3cc(-c4cccnc4)ccc3c2n1CC1CCN(C(=O)NC(C)C)CC1` (hydrate or solvate) [Example 408, 4-[4-Amino-2-ethyl-7-(pyridin-3-yl)-1H-imidazo[4,5-c]quinolin-1-ylmethyl]piperidin-1-carboxylic acid isopropylamide] here?
A: 255 to 256 °C

Q: With `Cc1nc2c(N)nc3cc(-c4ccccc4)ccc3c2n1CCCS(C)(=O)=O` [Example 124, 2-Methyl-1-(3-methanesulfonylpropyl)-7-phenyl-1H-imidazo[4,5-c]quinolin-4-amine] as the molecule, how does the melting point read?
A: 203 to 205 °C

Q: With `CCOCc1nc2c(N)nc3ccc(-c4cccnc4)cc3c2n1CC(C)(C)O` [Example 148, 1-[4-Amino-2-ethoxymethyl-8-(pyridin-3-yl)-1H-imidazo[4,5-c]quinolin-1-yl]-2-methylpropan-2-ol] as the molecule, how does the melting point read?
A: 222 to 223 °C

Q: Which melting point does the source give for `CCOCc1nc2c(N)nc3cc(-c4cccc(C#N)c4)ccc3c2n1CC(C)C` [Example 111, 3-(4-Amino-2-ethoxymethyl-1-(2-methylpropyl)-1H-imidazo[4,5-c]quinolin-7-yl)benzonitrile] here?
A: 210 to 211 °C

Q: Which melting point does the source give for `CCOCc1nc2c(N)nc3cc(-n4cccn4)ccc3c2n1CCCOC` [Example 472, 2-Ethloxymethyl-1-(3-methoxypropyl)-7-(pyrazol-1-yl)-1H-imidazo[4,5-c]quinolin-4-amine] here?
A: 159 to 160 °C

Q: With `CCOCc1nc2c(N)nc3cc(-c4cccnc4)ccc3c2n1C[C@@H](O)CO` [Example 488, (R)-3-[4-Amino-2-ethoxymethyl-7-(pyridin-3-yl)-1H-imidazo[4,5-c]quinolin-1-yl]propane-1,2-diol] as the molecule, how does the melting point read?
A: 202 to 204 °C

Q: With `COCCc1nc2c(N)nc3cc(-c4cccc(CO)c4)ccc3c2n1CC(C)(C)O` [Example 140, 1-[4-Amino-7-(3-hydroxymethylphenyl)-2-(2-methoxyethyl)-1H-imidazo[4,5-c]quinolin-1-yl]-2-methylpropan-2-ol] as the molecule, how does the melting point read?
A: 212 to 213 °C

Q: For `CCOCc1nc2c(N)nc3cc(-c4ccncc4)ccc3c2n1CC(C)(C)O` [Example 127, 1-[4-Amino-2-ethoxymethyl-7-(pyridin-4-yl)-1H-imidazo[4,5-c]quinolin-1-yl]-2-methylpropan-2-ol], which melting point is on record?
A: 220 to 221 °C

Q: Which melting point does the source give for `CCOCc1nc2c(N)nc3cc(-c4ccc(C(=O)N5CCOCC5)cc4)ccc3c2n1CCCOC` [Example 170, {4-[4-Amino-2-ethoxymethyl-1-(3-methoxypropyl)-1H-imidazo[4,5-c]quinolin-7-yl]phenyl}morpholin-4-ylmethanone] here?
A: 163 to 165 °C
